Test results: PubChem BioAssay AID2060332 (Molecular Pharmacology Branch, DTP, NCI, 2025)
Values joined by “and” are separate entries in the source; they are usually repeats but may differ in a detail not shown here. Equal values may be shown once. Values belong to the compound of their own block, whether it stands above or below them.

Tested on: LG0567-F671-PDC multi-cell spheroid viability
Assay: Anticancer human tumor LG0567-F671-PDC patient-derived lung adenocarcinoma cell line growth inhibition [IpAb]
Conditions: for viability, T/C: stronger effect = lower value
Text: Combinatorial screen of targeted agents with ipatasertib and abemaciclib in multi-cell type tumor spheroids
A high-throughput screen of multi-cell type tumor spheroids was designed to identify active combinations of targeted small molecules and ipatasertib or abemaciclib. Complex spheroids include a stromal component modeled by human endothelial cells (HUVEC) and fibroblasts modeled by human mesenchymal stem cells (MSCs). The concentration ranges selected for each drug and investigational agent were based upon clinically achievable concentrations if the clinical Cmax of the agent was known.
Compounds. The drugs and investigational agents: ipatasertib (NSC767898), abemaciclib(NSC768073), selumetinib (NSC741078), trametinib (758246), adavosertib (NSC754352), everolimus (NSC733504), sapanisertib (NSC764658), vemurafenib (NSC761431), venetoclax (NSC766270), copanlisib (NSC809693), apelisib (NSC765974), palbociblib (NSC758247), vemurafenib (NSC761431), dabrafenib (NSC764134), ravoxertinib (NSC781343), BMS-387032 (NSC767048), sotorasib (NSC818433), talazoparib (NSC767125) and afursertib (NSC778305), were obtained from the National Cancer Institute (NCI) Developmental Therapeutics Program Chemical Repository. The FDA-approved anticancer drug set is available from the NCI Developmental Therapeutics Program. […] The stock solutions were prepared in dimethyl sulfoxide (DMSO, Sigma-Aldrich, St. Louis, MO, cat. D2650) at 800-fold the tested concentration and stored at -70 degrees C prior to their use. All drugs and investigational agents were tested over a range starting from a high concentration at or near the clinical Cmax and decreasing in half-log increments. If the clinical Cmax for an agent had not been determined, the highest concentration tested was 10 microM.
NCI60 Cell Culture. NCI60 cell lines were obtained from the NCI Developmental Therapeutics Program Tumor Repository. For each lot of cells, the Repository performed Applied Biosystems AmpFLSTR Identifiler testing with PCR amplification to confirm consistency with the published Identifier STR profile for each cell line. Cells were kept in continuous culture for no more than 20 passages. The optimal seeding densities for each of the cell lines at each time point assessed were determined prior to performing the concentration response studies. Briefly, the NCI60 human tumor lines were grown as monolayers in RPMI 1640 medium supplemented with 10% FBS and 2 mmol/L L-glutamine.
An additional 9 lines were from the NCI60 cell line panel including MDA-MB-231 breast carcinoma, MDA-MB-468 breast carcinoma, MCF7 breast carcinoma, Hs578T breast carcinoma, MALME-3M melanoma, SK-MEL-2 melanoma, SK-OV-3 ovarian carcinoma, DU-145 prostate carcinoma, PC-3 prostate carcinoma, all cell lines along with major genetic alterations are listed on Table 2. Pooled donor human umbilical vein endothelial cells (HUVEC, Lonza, cat. CC-2519) and human mesenchymal stem cells (hMSC, Lonza, cat. PT-2501) were purchased from Lonza (Walkersville, MD).
PDMR cell lines were grown in complete medium (DC medium): Dulbecco's modified Eagle's medium (DMEM)/F12 supplemented with 5% fetal bovine serum (FBS), 2 mM L-glutamine, 100 U/mL penicillin and 100 µg/ml streptomycin, 0.4 µg/ml hydrocortisone, 10 ng/ml epidermal growth factor (EGF) recombinant human protein, 24 µg/mL adenine, and 0.1 mg/mL primocin. During culture from frozen stock vials, PDMR cells were cultured in the same medium containing 10 µM Y-27632 (see Table 3). The PDCs were cultured in complete DMEM/F12 media without 10 microM Y-27632 dihydrochloride for at least two passages prior to the screen. The pooled donor HUVEC and hMSC were cultured in endothelial cell growth medium 2 (PromoCell, Heidelberg, Germany, cat. C-22011) and mesenchymal stem cell growth medium 2 (PromoCell, cat. C-28009), respectively. For all experiments, HUVEC and hMSC were used at passages </=5.
[…]

[1] = curve of first compound, second compound 0.1 µM
[2] = curve of first compound, second compound 0.316 µM
[3] = curve of first compound, second compound 1 µM
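Note: viability read after 7 days of drug exposure.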
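Throughout, for viability, T/C: 100% = DMSO vehicle control luminescence.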

Structure (SMILES): CCCS(=O)(=O)Nc1ccc(F)c(C(=O)c2c[nH]c3ncc(-c4ccc(Cl)cc4)cc23)c1F + CCN1CCN(Cc2ccc(Nc3ncc(F)c(-c4cc(F)c5nc(C)n(C(C)C)c5c4)n3)nc2)CC1
IC50 (curve of first compound, second compound 0.01 µM): > 10000 nM
IC50 (curve of first compound, second compound 0.0316 µM): > 10000 nM
IC50 [1]: > 10000 nM
IC50 [2]: > 10000 nM
IC50 [3]: > 10000 nM
viability, T/C (second compound 0.01 µM, first compound 0.0316 µM): 104%
viability, T/C (second compound 0.01 µM, first compound 0.1 µM): 140%
viability, T/C (second compound 0.01 µM, first compound 0.316 µM): 112%
viability, T/C (second compound 0.01 µM, first compound 1 µM): 145%
viability, T/C (second compound 0.01 µM, first compound 3.16 µM): 169%
viability, T/C (second compound 0.01 µM, first compound 10 µM): 168%
viability, T/C (second compound 0.0316 µM, first compound 0.0316 µM): 93.3%
viability, T/C (second compound 0.0316 µM, first compound 0.1 µM): 105%
viability, T/C (second compound 0.0316 µM, first compound 0.316 µM): 140%
viability, T/C (second compound 0.0316 µM, first compound 1 µM): 121%
viability, T/C (second compound 0.0316 µM, first compound 3.16 µM): 156%
viability, T/C (second compound 0.0316 µM, first compound 10 µM): 115%
viability, T/C (second compound 0.1 µM, first compound 0.0316 µM): 77.4%
viability, T/C (second compound 0.1 µM, first compound 0.1 µM): 98.8%
viability, T/C (second compound 0.1 µM, first compound 0.316 µM): 91.6%
viability, T/C (second compound 0.1 µM, first compound 1 µM): 113%
viability, T/C (second compound 0.1 µM, first compound 3.16 µM): 154%
viability, T/C (second compound 0.1 µM, first compound 10 µM): 92.1%
viability, T/C (second compound 0.316 µM, first compound 0.0316 µM): 68.8%
viability, T/C (second compound 0.316 µM, first compound 0.1 µM): 86.3%
viability, T/C (second compound 0.316 µM, first compound 0.316 µM): 91.7%
viability, T/C (second compound 0.316 µM, first compound 1 µM): 108%
viability, T/C (second compound 0.316 µM, first compound 3.16 µM): 80.1%
viability, T/C (second compound 0.316 µM, first compound 10 µM): 55.4%
viability, T/C (second compound 1 µM, first compound 0.0316 µM): 66.9%
viability, T/C (second compound 1 µM, first compound 0.1 µM): 88.3%
viability, T/C (second compound 1 µM, first compound 0.316 µM): 73.7%
viability, T/C (second compound 1 µM, first compound 1 µM): 70.4%
viability, T/C (second compound 1 µM, first compound 3.16 µM): 76.9%
viability, T/C (second compound 1 µM, first compound 10 µM): 65.1%

IC50 (curve of compound): > 10000 nM
Structure (SMILES): CCCS(=O)(=O)Nc1ccc(F)c(C(=O)c2c[nH]c3ncc(-c4ccc(Cl)cc4)cc23)c1F
viability, T/C (compound 0.0316 µM): 101% and 97.6%
viability, T/C (compound 0.1 µM): 117% and 154%
viability, T/C (compound 0.316 µM): 143% and 135%
viability, T/C (compound 1 µM): 138%
viability, T/C (compound 3.16 µM): 197% and 189%
viability, T/C (compound 10 µM): 215% and 179%

IC50 (curve of compound): > 300 nM
Structure (SMILES): CC(=O)c1c(C)c2cnc(Nc3ccc(N4CCNCC4)cn3)nc2n(C2CCCC2)c1=O
viability, T/C (compound 0.000949 µM): 95.7% and 102%
viability, T/C (compound 0.003 µM): 78.4% and 87.8%
viability, T/C (compound 0.00949 µM): 107% and 91.7%
viability, T/C (compound 0.03 µM): 68.7% and 76.1%
viability, T/C (compound 0.0949 µM): 91.7% and 72.5%
viability, T/C (compound 0.3 µM): 86.8% and 82.4%

IC50 (curve of compound): 2470 nM and 1660 nM
Structure (SMILES): Cn1ncc(Cl)c1-c1cc(C(=O)NC(CN)Cc2cccc(F)c2)sc1Cl (stereo not drawn)
viability, T/C (compound 0.0316 µM): 111% and 97.3%
viability, T/C (compound 0.1 µM): 93% and 66%
viability, T/C (compound 0.316 µM): 52.6% and 62.1%
viability, T/C (compound 1 µM): 82.9% and 63%
viability, T/C (compound 3.16 µM): 53% and 45.6%
viability, T/C (compound 10 µM): 0.27% and 0.21%

Structure (SMILES): Cn1cnc2c(F)c(Nc3ccc(Br)cc3Cl)c(C(=O)NOCCO)cc21 + CC(C)NCC(C(=O)N1CCN(c2ncnc3c2C(C)CC3O)CC1)c1ccc(Cl)cc1
IC50 [1]: 15.7 nM
IC50 [2]: < 9.49 nM
IC50 [3]: < 9.49 nM
IC50 (curve of first compound, second compound 3.16 µM): < 9.49 nM
IC50 (curve of first compound, second compound 10 µM): < 9.49 nM
viability, T/C (second compound 0.1 µM, first compound 0.00949 µM): 59.6%
viability, T/C (second compound 0.1 µM, first compound 0.03 µM): 36.4%
viability, T/C (second compound 0.1 µM, first compound 0.0949 µM): 29.3%
viability, T/C (second compound 0.1 µM, first compound 0.3 µM): 18.2%
viability, T/C (second compound 0.1 µM, first compound 0.949 µM): 18.6%
viability, T/C (second compound 0.1 µM, first compound 3 µM): 11.1%
viability, T/C (second compound 0.316 µM, first compound 0.00949 µM): 43.4%
viability, T/C (second compound 0.316 µM, first compound 0.03 µM): 32.4%
viability, T/C (second compound 0.316 µM, first compound 0.0949 µM): 23.2%
viability, T/C (second compound 0.316 µM, first compound 0.3 µM): 18%
viability, T/C (second compound 0.316 µM, first compound 0.949 µM): 14.3%
viability, T/C (second compound 0.316 µM, first compound 3 µM): 5.52%
viability, T/C (second compound 1 µM, first compound 0.00949 µM): 34.6%
viability, T/C (second compound 1 µM, first compound 0.03 µM): 32.3%
viability, T/C (second compound 1 µM, first compound 0.0949 µM): 23.9%
viability, T/C (second compound 1 µM, first compound 0.3 µM): 21.3%
viability, T/C (second compound 1 µM, first compound 0.949 µM): 10.7%
viability, T/C (second compound 1 µM, first compound 3 µM): 8.24%
viability, T/C (second compound 3.16 µM, first compound 0.00949 µM): 44.9%
viability, T/C (second compound 3.16 µM, first compound 0.03 µM): 43.4%
viability, T/C (second compound 3.16 µM, first compound 0.0949 µM): 36.4%
viability, T/C (second compound 3.16 µM, first compound 0.3 µM): 16.4%
viability, T/C (second compound 3.16 µM, first compound 0.949 µM): 14.8%
viability, T/C (second compound 3.16 µM, first compound 3 µM): 7.66%
viability, T/C (second compound 10 µM, first compound 0.00949 µM): 43.4%
viability, T/C (second compound 10 µM, first compound 0.03 µM): 28.7%
viability, T/C (second compound 10 µM, first compound 0.0949 µM): 26.7%
viability, T/C (second compound 10 µM, first compound 0.3 µM): 21.5%
viability, T/C (second compound 10 µM, first compound 0.949 µM): 11.9%
viability, T/C (second compound 10 µM, first compound 3 µM): 8.12%

IC50 (curve of compound): 11.9 nM and < 9.49 nM
Structure (SMILES): Cn1cnc2c(F)c(Nc3ccc(Br)cc3Cl)c(C(=O)NOCCO)cc21
viability, T/C (compound 0.00949 µM): 54.7% and 48.5%
viability, T/C (compound 0.03 µM): 33% and 42.6%
viability, T/C (compound 0.0949 µM): 27.1% and 34.2%
viability, T/C (compound 0.3 µM): 25.2% and 24.2%
viability, T/C (compound 0.949 µM): 18.1% and 21.6%
viability, T/C (compound 3 µM): 16.5% and 16%
